pEC50, pIC50: −log10 of the molar value.
How the values were obtained:
[1] = target: T1, Recombinant Human NF-kappaB-Inducing Kinase (NIK/MAP3K14) (Homo sapiens, UniProt Q99558); assay: Biological Assay A: inhibition of recombinant human NIK/MAP3K14 activity (MSD, MBP substrate); settings: 25 μM ATP, 10 nM NIK/MAP3K14, 1 h at 25° C.; averaged over all batches; read-out: Biochemical (MSD MBP) IC50
Description: Inhibition of Recombinant Human NF-kappaB-Inducing Kinase (NIKIMAP3K14) Activity
Assay buffer was 50 mM Tris pH 7.5 containing 1 mM ethylene glycol tetraacetic acid (EGTA), 1 mM dithiothreitol (DTT), 0.1 mM Na3VO4, 5 mM MgCl2, 0.01% Tween® 20. Assays were carried out in 384 well Mesoscale high binding plates which had been coated with myelin basic protein (MBP) and blocked with bovine serum albumin to prevent non-specific protein binding. All compounds tested were dissolved in dimethyl sulfoxide (DMSO) and further dilutions were made in assay buffer. Final DMSO concentration was 1% (v/v) in assays. Incubations consisted of compound (1% DMSO in control and blank wells), 25 μM Adenosine-5′-triphosphate (ATP), and 10 nM NIK/MAP3K14 substituting enzyme with buffer in the blank wells. Incubations were carried out for 1 h at 25° C. and were followed by washing and sequential incubation with rabbit anti-phospho-MBP and anti-rabbit Ig Sulfotag antibody before reading bound Sulfotag on a Mesoscale Discovery. Signal obtained in the wells containing blank samples was subtracted from all other wells and IC50's were determined by fitting a sigmoidal curve to % inhibition of control versus Log10 compound concentration.

JJN-3 cells = assay: Biological Assay C: antiproliferative activity on JJN-3 cells (CellTiter-Glo); assay type: cell-based; settings: Homo sapiens, 72 hr treatment
Description: (§1) Determination of Antiproliferative Activity on LP-1, L-363 and JJN-3 Cells
(§2) All compounds tested were dissolved in DMSO and further dilutions were made in culture medium. Final DMSO concentration was 0.3% (v/v) in cell proliferation assays. Viability was assessed using CellTiter-Glo cell viability assay kit (Promega). The human LP-1, L-363 and JJN-3 cells (DSMZ) were cultured in RPMI 1640 medium supplemented with 2 mM L-glutamine, and 10% fetal calf serum (PAA). Cells were routinely kept as suspension cells at 37° C. in a humidified 5% CO2 atmosphere. Cells were passaged at a seeding density of 0.2×10^6/ml twice a week. Cells were seeded in black tissue culture treated 96-well plates (Perkin Elmer). Densities used for plating ranged from 2,000 to 6,000 cells per well in a total volume of 75 μl medium. After twenty four hours, drugs and/or solvents were added (25 μl) to a final volume of 100 μl. Following 72 hr of treatment plates were removed from the incubator and allowed to equilibrate to room temperature for approx 10 min. 100 μl CellTiter-Glo reagent was added to each well that was then covered (Perkin Elmer Topseal) and shaken on plate shaker for 10 min. Luminescence was measured on a HTS Topcount (Perkin Elmer). Within an experiment, the results for each treatment were the mean of 2 replicate wells. For initial screening purposes, compounds were tested using a 9 point dilution curve (serial 1:3 dilutions). For each experiment, controls (containing no drug) and a blank incubation (containing cells read at the time of compound addition) were run in parallel. The blank value was subtracted from all control and sample values. For each sample, the mean value for cell growth (in relative light units) was expressed as a percentage of the mean value for cell growth of the control.

L-363 cells = assay: Biological Assay C: antiproliferative activity on L-363 cells (CellTiter-Glo); assay type: cell-based; settings: Homo sapiens, 72 hr treatment
Description: as §1, §2

[2] = test system: P-IKKα levels in L363 cells; assay: Biological Assay B: effect of compounds on P-IKKα levels in L363 cells; assay type: cell-based; settings: Homo sapiens, L-363, BAFF stimulated, 2 hr treatment, averaged over all batches, read-out: IKKα Cellular IC50
Description: Effect of Compounds on P-IKKα Levels in L363 Cells
All compounds tested were dissolved in DMSO and further dilutions were made in culture medium. Final DMSO concentration was 1% (v/v) in cell assays. The human L363 cells (ATCC) were cultured in RPMI 1640 medium supplemented with GlutaMax and 10% fetal calf serum (PAA). Cells were routinely maintained at densities of 0.2×10^6 cells per ml-1×10^6 cells per ml at 37° C. in a humidified 5% CO2 atmosphere. Cells were passaged twice a week splitting back to obtain the low density. Cells were seeded in 96 well plates (Nunc 167008) at 2×10^6 per ml media in a volume of 75 μl per well plus 25 μl 1 μg/ml recombinant human B-cell activating factor (BAFF/BLyS/TNFSF13B). Seeded cells were incubated at 37° C. in a humidified 5% CO2 atmosphere for 24 hr. Drugs and/or solvents were added (20 μl) to a final volume of 120 μl. Following 2 hr treatment plates were removed from the incubator and cell lysis was achieved by the addition of 30 μl 5× lysis buffer followed by shaking on a plate shaker at 4° C. for 10 min. At the end of this incubation lysed cells were centrifuged at 800×g for 20 min at 4° C. and the lysate was assessed for P-IKKα levels by sandwich immuno-assay carried out in anti-rabbit antibody coated Mesoscale plates. Within an experiment, the results for each treatment were the mean of 2 replicate wells. For initial screening purposes, compounds were tested using an 8 point dilution curve (serial 1:3 dilutions). For each experiment, controls (containing MG132 and BAFF but no test drug) and a blank incubation (containing MG132 and BAFF and 10 μM ADS125117, a test concentration known to give full inhibition) were run in parallel. The blank incubation value was subtracted from all control and sample values. To determine the IC50 a sigmoidal curve was fitted to the plot of % inhibition of control P-IKKα levels versus Log10 compound concentration.

[3] = target: T1, Recombinant Human NF-kappaB-Inducing Kinase (NIK/MAP3K14); assay: Biological Assay A2: inhibition of auto-phosphorylation of recombinant human NIK/MAP3K14 (AlphaScreen); assay type: biochemical; settings: 25 microM ATP, 0.2 nM NIK/MAP3K14, 1 h at 25° C., averaged over all batches, read-out: Alpha-Screen IC50
Description: Inhibition of Auto-Phosphorylation of Recombinant Human NF-kappaB-Inducing Kinase (NIKIMAP3K14) Activity (AlphaScreen®)
NIK/MAP3K14 auto-phosphorylation activity was measured using the AlphaScreen® (ascreen) format (Perkin Elmer). All compounds tested were dissolved in dimethyl sulfoxide (DMSO) and further dilutions were made in assay buffer. Final DMSO concentration was 1% (v/v) in assays. Assay buffer was 50 mM Tris pH 7.5 containing 1 mM EGTA (ethylene glycol tetraacetic acid), 1 mM DTT (dithiothreitol), 0.1 mM Na3VO4, 5 mM MgCl2, 0.01% Tween® 20. Assays were carried out in 384 well Alphaplates (Perkin Elmer). Incubations consisted of compound, 25 microM Adenosine-5′-triphosphate (ATP), and 0.2 nM NIK/MAP3K14. Incubations were initiated by addition of GST-tagged NIK/MAP3K14 enzyme, carried out for 1 h at 25° C. and terminated by addition of stop buffer containing anti-phospho-IKK Ser176/180 antibody. Protein A Acceptor and Glutathione-Donor beads were added before reading using an EnVision® Multilabel Plate Reader (Perkin Elmer). Signal obtained in the wells containing blank samples was subtracted from all other wells and IC50's were determined by fitting a sigmoidal curve to % inhibition of control versus Log10 compound concentration.

LP-1 cells = assay: Biological Assay C: antiproliferative activity on LP-1 cells (CellTiter-Glo); assay type: cell-based; settings: Homo sapiens, 72 hr treatment
Description: as §1, §2

T1 sequence (Q99558 whole entry): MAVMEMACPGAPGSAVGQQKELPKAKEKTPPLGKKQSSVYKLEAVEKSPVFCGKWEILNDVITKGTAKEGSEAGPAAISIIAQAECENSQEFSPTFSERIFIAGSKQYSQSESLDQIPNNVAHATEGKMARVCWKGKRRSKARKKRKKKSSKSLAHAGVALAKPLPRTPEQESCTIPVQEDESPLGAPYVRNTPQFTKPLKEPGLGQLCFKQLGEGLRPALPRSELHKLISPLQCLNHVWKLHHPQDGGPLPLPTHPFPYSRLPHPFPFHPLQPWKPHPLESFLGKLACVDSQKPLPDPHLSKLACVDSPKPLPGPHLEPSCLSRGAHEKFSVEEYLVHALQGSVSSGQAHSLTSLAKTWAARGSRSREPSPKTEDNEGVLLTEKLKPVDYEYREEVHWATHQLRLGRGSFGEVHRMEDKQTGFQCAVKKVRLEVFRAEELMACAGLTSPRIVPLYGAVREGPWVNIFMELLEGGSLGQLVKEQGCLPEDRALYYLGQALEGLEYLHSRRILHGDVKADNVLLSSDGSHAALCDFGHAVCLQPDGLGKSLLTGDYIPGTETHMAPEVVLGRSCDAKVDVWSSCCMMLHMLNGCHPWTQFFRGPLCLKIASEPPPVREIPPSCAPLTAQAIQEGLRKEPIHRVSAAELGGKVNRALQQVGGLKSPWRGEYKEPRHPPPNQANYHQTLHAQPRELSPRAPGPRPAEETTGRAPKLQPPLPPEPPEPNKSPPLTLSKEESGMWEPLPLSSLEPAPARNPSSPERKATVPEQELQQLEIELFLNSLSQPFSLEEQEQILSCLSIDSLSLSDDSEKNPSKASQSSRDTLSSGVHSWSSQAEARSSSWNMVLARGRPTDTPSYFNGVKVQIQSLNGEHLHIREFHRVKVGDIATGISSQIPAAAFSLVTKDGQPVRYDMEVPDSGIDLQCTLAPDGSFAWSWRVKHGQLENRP

Row | SMILES | pIC50 [1] | pEC50 (JJN-3 cells) | pEC50 (L-363 cells) | pIC50 [2] | pIC50 [3] | pEC50 (LP-1 cells)
1 | CN(C)C(=O)c1cn(-c2ccnc(N)n2)c2cc(C#CC(C)(C)O)ncc12 [Compound 2] | 7.14 | 5.48 | 5.30 | 5.98 | 6.74 | < 4.52
2 | Nc1nccc(-n2ccc3cnc(C#CC4(O)CC4)cc32)n1 [Compound 4] | 8.41 | 7.25 | 7.21 | 8.14 | 8.25 | 6.91
3 | CC(O)(C#Cc1cc2c(ccn2-c2ccnc(N)n2)cn1)c1nccs1 (stereo not drawn) [Compound 5] | 8.62 | 6.63 | 5.53 | 7.74 | 8.00 | 5.48
4 | CNc1nccc(-n2ccc3cnc(C#CC(C)(C)O)cc32)n1 [Compound 6] | 7.26 | 6.13 | 6.11 | 6.69 | 7.10 | 6.03
5 | CC(C)(O)C#Cc1cc2c(ccn2-c2nc(N)ncc2Cl)cn1 [Compound 7] | 8.42 | 5.98 | 6.01 | 6.79 | 7.80 | 5.72
6 | Nc1ncc(Cl)c(-n2ccc3cnc(C#CC4(O)CC4)cc32)n1 [Compound 8] | 7.92 | 5.80 | 5.81 | 6.98 | 7.62 | 5.63
7 | Nc1ncc(Cl)c(-n2ccc3cnc(C#CC4(O)CCCC4)cc32)n1 [Compound 9] | 8.55 | 5.74 | 4.81 | 7.00 | 7.96 | 4.43
8 | CC(O)(C#Cc1cc2c(ccn2-c2nc(N)ncc2Cl)cn1)c1nccs1 (stereo not drawn) [Compound 10] | 8.29 | 5.92 | 4.89 | 7.05 | 7.74 | 4.55
9 | Cc1cnc(N)nc1-n1ccc2cnc(C#CC(C)(C)O)cc21 [Compound 11] | 6.94 | 5.57 | 5.42 | 6.48 | 6.63 | 5.23
10 | CC(C)(O)C#Cc1cc2c(ccn2-c2nc(N)ncc2F)cn1 [Compound 12] | 7.11 | 6.88 | 6.88 | 7.60 | 7.89 | 6.55
11 | Nc1ncc(F)c(-n2ccc3cnc(C#CC4(O)CCCC4)cc32)n1 [Compound 13] | 7.74 | 6.06 | 5.37 | 7.36 | 8.11 | 5.49
12 | CC(C)(O)C#Cc1cc2c(cn1)c(C(N)=O)cn2-c1ccnc(N)n1 [Compound 14] | 7.55 | 4.97 | 4.90 | 5.91 | 6.73 | < 4.52
13 | CNC(=O)c1cn(-c2ccnc(N)n2)c2cc(C#CC(C)(C)O)ncc12 [Compound 15] | 7.43 | 5.48 | 5.14 | 5.88 | 7.23 | < 4.52
14 | CC(CO)c1cn(-c2ccnc(N)n2)c2cc(C#CC(C)(C)O)ncc12 (stereo not drawn) [Compound 16] | 7.70 | 6.80 | 6.45 | 7.25 | 8.17 | 5.21
15 | CCCCOCc1cn(-c2ccnc(N)n2)c2cc(C#CC(C)(C)O)ncc12 [Compound 17] | 7.09 | 6.48 | 6.33 | 6.70 | 6.59 | 6.34
16 | COCc1cn(-c2ccnc(N)n2)c2cc(C#CC(C)(C)O)ncc12 [Compound 18] | 7.66 | 6.50 | 6.61 | 7.25 | 7.70 | 5.88
17 | CC(C)(O)C#Cc1cc2c(cn1)c(C#N)cn2-c1ccnc(N)n1 [Compound 19] | 7.01 | 5.84 | 5.74 | 6.11 | 7.27 | 5.33
